Consider five compounds from PMC11480511 (Scientific Reports, 2024).

Converted amounts (≈) assume the structure as drawn. Read-outs that look alike come from different tables or passages of the source.

The test system of assay [1] is P. aeruginosa ATCC 27,853. Kind of assay: Antibacterial screening, agar cup diffusion method. It counts as cell-based. The note with it: Pseudomonas aeruginosa, ATCC27; Gram –ve strain; read-out: Minimum inhibitory concentrations (MIC, µM) P. aeruginosa ATCC 27,853.
Description: (§2) Anti-bacterial activity of the recently synthesized compounds 3a-k was evaluated at AUMC (Assiut University Mycological Centre), Assiut, Egypt. Assays were done against Gram-negative strains of K. pneumoniae (ATCC 100310, E. coli (ATCC 25922), Pseudomonas aeruginosa (ATCC 27853) and the Gram-positive S. aureus (ATCC 6538) strain utilizing standard agar cup diffusion method. The isolates from the four bacterial species examined were kept in TSB (Trypticase Soya Broth, Becton and Dickinson) with 10% glycerol at -70 °C and then subcultured on TSA (Trypticase Soya Agar, Becton and Dickinson) and TSB for 24 h at 37 °C former to inoculation. Bacterial isolates were then plated on sterile petri plates with 1 × 10^8 CFU/mL (0.5 McFarland turbidity) and 20 mL of Mueller Hinton Agar media (Oxoid) was then loaded. To ensure that the microorganisms were evenly dispersed, the plates were gently rotated before being left to harden on a level surface. Four equally spaced spherical-shaped wells (10 mm diameter) were painstakingly drilled using a sterilized cork bore after media solidification. All tested compounds under test underwent two-fold serial dilutions in a sequential manner. Three replications of 100 µL of each concentration were added to a well using a micropipette. Plates were then incubated for 24-hour at 37 °C. The average of the inhibition zones was then calculated. To determine the MICs, the natural logarithm of each diluted test substance’s concentration was plotted against the average area of the related inhibition zone. Following that, a regression line was created and the intercept on the ‘ln concentration” axis was determined, and the antilogarithm was calculated to indicate the MIC value[34],[63].
In another assay the test system is S. aureus ATCC 6538. Description: Antibacterial screening, agar cup diffusion method. It counts as cell-based. The note with it: Staphylococcus aureus, ATCC6538; Gram + ve strain; read-out: Minimum inhibitory concentrations (MIC, µM) S. aureus ATCC 6538.
In another assay the test system is E. coli ATCC 25,922. Kind of assay: Antibacterial screening, agar cup diffusion method. It counts as cell-based. The following applies: Escherichia coli, ATCC25, Gram –ve strain; read-out: Minimum inhibitory concentrations (MIC, µM) E. coli ATCC 25,922.
The test system of the next assay is Jurkat cells. The following applies: cited from earlier work.
The subject of assay [2] is K. pneumoniae ATCC 10,031. Kind of assay: Antibacterial screening, agar cup diffusion method. It counts as cell-based. The note with it: read-out: Minimum inhibitory concentrations (MIC, µM) K. pneumoniae ATCC 10,031.
Description: as §2
A further assay addresses T1, topoisomerase IIβ (Homo sapiens, UniProt Q02880).
T1 construct: purchased
Description: Topoisomerase II inhibition, human DNA topoisomerase Elisa kit. It counts as biochemical. How it is done:
Two folds of serial dilution was accomplished after standards and the tested compounds were dissolved in sample diluent. Horseradish peroxidase (HRP-avidin) and biotin-conjugated antibody were diluted 10 times each. Each well received 100 µL of each concentration of the standard or test chemicals, which were then added and incubated at 37 °C for 60 min. […] The microtiter plate was rinsed three times and given room to aspirate. After that, the plate was incubated at 37 °C for 60 min with 100 µL of HRP-avidin solution added to each well. After that, the plate was aspirated and cleaned 5 times. Each well received 90 µL of TMB substrate, and the plate was incubated for 30 min. at 37 °C in a light-protected environment. Finally, stop solution (50 µL) was loaded, and within 5 min, the absorbance at 450 nm was measured spectrophotometrically.
Topoisomerase enzyme assay
Topoisomerase I and II inhibitory activity […]
topoisomerase IIβ inhibitory activity utilizing the human DNA topoisomerase Elisa kit.
Standards and the tested compound were dissolved in sample diluent and 2 folds serial dilution was achieved. Biotin-conjugated antibody and avidin conjugated Horseradish Peroxidase (HRP-avidin) were diluted to 10 folds. 100 μL of each concentration of standard or test compound were added to each well. Incubate at 37 °C for 1 h. The liquid in each well was removed. 10 0 μL of Biotin-conjugated antibody solution was added to each well followed by incubation for 1 h at 37 °C. The microtiter plate was allowed to aspirate and washed 3 times. 100 μL of avidin conjugated Horseradish Peroxidase (HRP -avidin) solution was added to each well and the plate was incubated for 1 h at 37 °C. The plate was aspirated and washed 5 times. 90 μL of TMB substrate were added to each well and the plate was incubated for 30 min at 37 °C and protected from light. 50 μL stop so lution was added. The absorbance was measured spectrophotometrically within 5 min at 450 nm .

The test system of assay [3] is A498 renal cancer cell line. Description: cells. The following applies: Homo sapiens.
The subject of assay [4] is melanoma LOX IMVI cell line. Kind of assay: Cell cycle analysis, propidium iodide flow cytometry. It counts as cell-based, human. The following applies: LOX IMVI treated at IC50 concentration. How it is done:
The effect of compound 3i on cell cycle progression of LOX IMVI cell line was evaluated using Propidium Iodide Flow Cytometry Kit to measure the DNA content according to the reported protocols. The LOX IMVI cells used in this work were obtained from the American Type Culture Collection. Cells were cultured in DMEM (Invitrogen/Life Technologies) supplemented with 10% FBS (Hyclone), 10 µg/ml insulin (Sigma), and 1% penicillin-streptomycin. The remaining chemicals and reagents were all from Sigma or Invitrogen. Growth media was removed, cells washed with warm PBS and aspirated. Adhered cells were detached from media by addition of 5 ml 10% trypsin/EDTA and incubated 2 min in the incubator. The suspended cells harvested, aspirated to a falcon tube, centrifuged at 2000 rpm for 5 min. Cell count performed after suspending the cells into a fresh media and stained with trypan blue, counted and used for preparation of the appropriate number of cells.
Background: In flow cytometry, cells or beads pass a laser one at a time.

Another assay has as its system Bax. Kind of assay: Western blot of protein expression in LOX IMVI cells. It counts as cell-based, human. The note with it: control = 1. The procedure: (§1) To evaluate the expression level of the apoptosis modulatory markers Bax, caspase 3 and PARP-1, western blot was performed as formerly described. Three different groups of LOX IMVI cells were permitted to grow to reach 70–80% confluence in […] flasks. The first group of LOX IMVI cells was treated with compound 3i. […] The media was taken out after 48 h, and cells underwent three rounds of ice-cold PBS washing. RIPA lysis buffer [consisting of Tris-HCl pH 7.6 (25 mM), NaCl (150 mM), EDTA (5 mM), NP-40 or Triton X-100 (1%), sodium deoxycholate (1%), SDS1 (1%)] with the proper phosphatase and a protease inhibitor was used to create the whole-cell lysate for 30 min. After centrifuging the mixture at 12,000 rpm for 20 min and sonicating it for five minutes, the supernatant was collected, split into aliquots, and kept at -80 °C. The Biuret method was used to determine protein content[27],[28]. Proteins in each matched cell lysate were denatured in 2 Laemmli buffer containing 5% β--mercaptoethanol at 95 °C for 5 min. For SDS-PAGE electrophoresis, 20 µg of protein per lane were loaded at 100 volts through a 6% stacking gel, then at 125 volts through a 10% resolving gel for around 2 h, and then transferred to a PVDF membrane using a semidry transfer apparatus (made by Cleaver Scientific) for 25 min. The PVDF membrane was first incubated for one hour at 4 °C in TBS buffer containing 0.1% Tween (TBST) and 5% fat-free milk, then overnight at 4 °C with monoclonal anti-Bax, anti-PARP-1, and anti-caspase-3 as primary antibodies (Cell Signalling Technology) at a dilution of 1:500. Membranes were first treated overnight, then three times washed in TBST buffer, then incubated at room temperature for 60 min with the corresponding HRP (horse radish peroxidase)-linked secondary antibodies (Dako). Then the substrate for the chemiluminescent Western ECL (Perkin Elmer, Waltham, MA) was added to the blot as described by the manufacturer by incubating the membranes with equal volumes of ECL solution A and ECL solution B for 1 min.

Another assay relates to active caspase-3. The assay is described as above. Type of assay: cell-based, human. The following applies: control = 1. The procedure:
as §1

In another assay the test system is PARP-1. Described as above. The note with it: control = 1. Type of assay: cell-based, human. How it is done:
as §1

A further assay deals with normal cell line WI 38. Description: MTT cytotoxicity assay on normal cells. Type of assay: cell-based. The note with it: Homo sapiens; normal cell line WI 38, MTT assay, ± SEM; read-out: IC50 W138 normal cell line (µM ± SEM). The procedure: After 24 h of culture incubation and supernatants discarded. […] Each test should include a blank containing complete medium without cells. […] Add reconstituted MTT in an amount equal to 10% of the culture medium volume. […] Spectrophotometrically absorbance was measured at a wavelength of 570 nm. […] Results from all experiments were recorded and the percentage of viable cells was calculated.
On the technique in general: Tetrazolium assays rely on reduction of a dye to a coloured formazan, in cell work by metabolically active cells.

For assay [5], the system named is melanoma LOX IMVI cell line. Description: Annexin V-FITC/PI apoptosis and necrosis assay. The following applies: LOX IMVI treated with IC50 concentration. It counts as cell-based, human. The procedure: Following the manufacturer’s instructions, the Annexin V-FITC Apoptosis Detection Kit (Bio Vision Research Products, USA) was used to analyze cell apoptosis. Briefly, 500 µL of 1X Binding buffer was used to resuspend 1-5 × 10^5 cells that had been harvested by centrifugation. Propidium iodide (PI, 50 mg/ml) and Annexin V-FITC, each administered in 5 µL, were also added. The cells were first incubated for 5 minutes at room temperature in the dark before being analyzed using the Annexin V-FITC binding flow cytometric technique (Ex = 488 nm; Em = 530 nm) with a FITC signal detector (typically FL1) and PI staining with a phycoerythrin emission signal detector (typically FL2). Before exposing adherent cells to Annexin V-FITC, we gently trypsinized and gave them a single wash in serum-containing medium (A.3–5). Cell synchronisation is done using Double-thymidine synchronization method and the used Media is double modifed eagle media (DMEM).
Cell cycle analysis and detection of apoptosis
Annexin V-FITC apoptosis assay
Cell apoptosis were analyzed by the Annexin V-FITC Apoptosis Detection Kit (Bio Vision Research Products, USA). Thereafter, 1-5 x 10^5 cells were collected by centrifugation and resuspend in 500 μl of 1X Binding Buffer. Added 5 μl of Annexin V-FITC and 5 μl of propidium iodide (PI 50mg/ml, optional.). The cells incubated at room temperature for 5 min in the dark; Analyzed by Annexin V-FITC binding flow cytometric method (Ex = 488 nm; Em = 530 nm) using FITC signal detector (usually FL1) and PI staining by the phycoerythrin emission signal detector (usually FL2). For adherent cells, we gently trypsinized and washed cells once with serum-containing media before incubation with Annexin V-FITC (A.3-5). […]

In another assay the test system is human melanoma LOX IMVI. Kind of assay: cells.
Assay [6] has as its system MCF-7 breast adenocarcinoma cell line. Set-up: method as in PMID 24287557. The note with it: cited from earlier work.
For assay [7], the system named is MDA-MB-231 breast adenocarcinoma. More on the design: method as in PMID 24287557. The note with it: cited from earlier work.
In assay [8] the test system is MDA-MB-231 triple negative breast cancer cell line. Set-up: method as in earlier work. The following applies: cited from earlier work.
Assay [9] has as its system A549 lung cancer cell line. More on the design: method as in PMID 27614408. The following applies: cited from earlier work.

T1 sequence (Q02880 whole entry): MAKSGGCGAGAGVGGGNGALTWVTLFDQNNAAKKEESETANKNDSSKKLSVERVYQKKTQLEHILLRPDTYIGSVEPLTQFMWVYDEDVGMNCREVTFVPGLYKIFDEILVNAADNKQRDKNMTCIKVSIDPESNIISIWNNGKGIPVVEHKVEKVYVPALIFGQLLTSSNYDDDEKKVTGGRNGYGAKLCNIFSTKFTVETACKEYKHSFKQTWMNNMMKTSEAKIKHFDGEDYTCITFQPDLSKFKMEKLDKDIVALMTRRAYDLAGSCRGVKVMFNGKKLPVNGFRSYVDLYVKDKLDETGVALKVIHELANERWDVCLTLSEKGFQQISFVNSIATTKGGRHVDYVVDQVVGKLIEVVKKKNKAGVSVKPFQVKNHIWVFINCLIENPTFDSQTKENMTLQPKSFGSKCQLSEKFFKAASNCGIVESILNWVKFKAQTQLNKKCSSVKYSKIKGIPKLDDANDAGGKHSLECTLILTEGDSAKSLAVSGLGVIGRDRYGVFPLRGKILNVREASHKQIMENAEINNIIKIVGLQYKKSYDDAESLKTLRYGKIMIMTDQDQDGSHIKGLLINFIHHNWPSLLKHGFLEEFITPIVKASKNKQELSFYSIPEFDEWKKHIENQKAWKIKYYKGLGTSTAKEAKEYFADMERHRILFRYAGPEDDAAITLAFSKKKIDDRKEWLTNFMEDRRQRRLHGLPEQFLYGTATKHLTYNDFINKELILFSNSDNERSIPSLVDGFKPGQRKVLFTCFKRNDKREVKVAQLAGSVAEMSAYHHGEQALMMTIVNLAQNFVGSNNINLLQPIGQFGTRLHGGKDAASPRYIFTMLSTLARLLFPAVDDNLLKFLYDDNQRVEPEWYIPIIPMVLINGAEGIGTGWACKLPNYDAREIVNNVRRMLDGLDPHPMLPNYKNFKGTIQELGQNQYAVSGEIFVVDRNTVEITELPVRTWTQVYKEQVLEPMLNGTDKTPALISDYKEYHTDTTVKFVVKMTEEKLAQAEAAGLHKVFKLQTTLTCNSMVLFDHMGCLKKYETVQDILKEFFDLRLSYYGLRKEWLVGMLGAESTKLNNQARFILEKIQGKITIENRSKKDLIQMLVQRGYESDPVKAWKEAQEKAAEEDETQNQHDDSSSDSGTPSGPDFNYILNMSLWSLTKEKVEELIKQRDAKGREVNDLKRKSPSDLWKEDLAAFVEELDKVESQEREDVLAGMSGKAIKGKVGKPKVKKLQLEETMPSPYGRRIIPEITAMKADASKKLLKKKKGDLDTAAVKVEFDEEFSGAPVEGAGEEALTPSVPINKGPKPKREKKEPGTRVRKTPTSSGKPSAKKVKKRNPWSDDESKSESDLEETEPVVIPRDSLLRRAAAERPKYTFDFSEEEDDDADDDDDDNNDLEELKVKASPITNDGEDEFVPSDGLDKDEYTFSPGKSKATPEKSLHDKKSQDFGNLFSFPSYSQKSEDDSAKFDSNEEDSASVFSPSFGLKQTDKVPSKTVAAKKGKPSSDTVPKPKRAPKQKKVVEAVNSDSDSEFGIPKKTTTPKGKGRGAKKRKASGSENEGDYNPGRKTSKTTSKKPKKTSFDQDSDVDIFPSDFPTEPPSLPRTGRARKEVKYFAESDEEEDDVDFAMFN
Description for E. coli ATCC 25,922: as §2
Description for S. aureus ATCC 6538: as §2

For the compound `O=C(O)c1cn(C2CC2)c2cc(N3CCNCC3)c(F)cc2c1=O` [Ciprofloxacin, reference compound], the MIC in [1] came out at 0.06 µM (≈ 0.0199 µg/mL); in the assay with S. aureus ATCC 6538, 5.49 µM; in the assay with E. coli ATCC 25,922, 0.04 µM (≈ 0.0133 µg/mL); in assay [2] (Gram –ve strain) it was 0.10 µM (≈ 0.0331 µg/mL); in assay [2] (Klebsiella pneumoniae, ATCC10, Gram –ve strain), 0.1 µM (≈ 0.0331 µg/mL). For the same compound, the “effect on proliferation of Jurkat cells” value in the assay on Jurkat cells (concentration of 25 µg/mL) was “inhibit the proliferation”. Moreover, in the assay with Jurkat cells (doses higher than 80 µg/mL), the “apoptosis in Jurkat cells” value is on record as “induced apoptosis”.

`COc1cccc2c1C(=O)c1c(O)c3c(c(O)c1C2=O)C[C@@](O)(C(=O)CO)C[C@@H]3O[C@H]1C[C@H](N)[C@H](O)[C@H](C)O1` [Doxorubicin, reference compound]: the midpoint of inhibition against topoisomerase IIβ, the IC50, lay at 6.49 ± 0.35 µM. For the same compound, in assay [3] (A498), the viability at 0.4 µM was found to be 64.5%, the viability at 1.6 µM amounted to 55.3%, the viability at 25 µM turned out to be 37.6% and the viability at 100 µM was 26.6%. Further, in assay [3] (A498, read-out: In vitro cytotoxicity (IC50) A498 cell line (µM ± SEM)), the IC50 stood at 3.59 ± 0.2 µM. In assay [4], the “%G0-G1 DNA content” value is 37.85%, the “%G2/M DNA content” value stood at 5.94%, the “%Pre-G1 DNA content” value is given as 46.29% and the “%S DNA content” value was 56.21%. In the assay on Bax, the “Bax OD” value was found to be 6.56. Moreover, the “Caspace-3 Optical density (OD)” value in the assay with active caspase-3 is given as 5.67. In addition, the “PARP-1 OD” value with PARP-1 worked out at 0.38. Further, the IC50 with normal cell line WI 38 worked out at 18.1 ± 0.98 µM. Also, in assay [5], the “Apoptosis Early” value was determined as 1.94%, the “Apoptosis Late” value was 28.53%, the “Apoptosis Total” value came out at 46.29% and the Necrosis worked out at 15.82%. In the assay with human melanoma LOX IMVI, this compound showed a viability at 0.4 µM of 70.4%, a viability at 1.6 µM of 58.2%, a viability at 25 µM of 42.6% and a viability at 100 µM of 30.4%. For the same compound, the IC50 in the assay with human melanoma LOX IMVI (read-out: In vitro cytotoxicity (IC50) LOX IMVI (µM ± SEM)) is 7.03 ± 0.4 µM.

For the compound `Cc1ccc(C(=O)CN2C(=O)S/C(=C\C3=C(Cl)c4cc(C)c(C)cc4CCC3)C2=O)cc1` [IV], the half-maximal inhibitory concentration (IC50) in assay [6] was 1.91 ± 0.03 µM; in [7] it was 13.39 ± 0.04 µM.

Turning to `O=C(CN1C(=O)S/C(=C\c2cc(-c3ccc(Cl)cc3)c3[nH]c4ccccc4c3c2)C1=O)N1CCOCC1` [VI], in assay [8], the 50% inhibitory concentration (IC50) was 0.97 ± 0.13 µM.

With `Cn1c(/C=C2\SC(=O)N(CC(=O)Nc3nc(-c4ccccc4)cs3)C2=O)nc2ccccc21` [V], in [9], the half-inhibitory concentration (IC50) was 11.5 ± 1.46 µM.

As a reminder, the IC50 is the concentration at which inhibition is half-maximal. By viability is commonly meant the share of living cells, or the viability signal relative to a control. Read a low viability as a greater loss of cells.
